What was measured:
[1] = Permeability across basolateral to apical side in human Caco2 cells; type: ADME, cell-based; conditions: Caco-2, read-out: permeability
[2] = Permeability across apical to basolateral side in human Caco2 cells; type: ADME, cell-based; conditions: Caco-2, read-out: permeability
[3] = biological target: Coagulation factor XI (Homo sapiens, UniProt P03951); assay: Inhibition of recombinant human activated coagulation factor XI using pyro-Glu-Pro-Arg-pNA as substrate by spectrophotometry
[4] = system: Plasma; assay: Anticoagulant activity in human plasma assessed as EC1.5 of activated partial thromboplastin time by coagulometric analysis; type: functional
[5] = Metabolic stability in human liver microsomes assessed as half life; type: ADME, Microsome
[6] = Clearance in Sprague-Dawley rat at 0.52 mg/kg, iv or 1.04 mg/kg, po measured upto 24 hrs by LC-MS/MS analysis; type: ADME, organism-based; conditions: in vivo
[7] = Half life in Sprague-Dawley rat at 0.52 mg/kg, iv or 1.04 mg/kg, po measured upto 24 hrs by LC-MS/MS analysis; type: ADME, organism-based; conditions: in vivo
[8] = Volume of distribution at steady state in Sprague-Dawley rat at 0.52 mg/kg, iv or 1.04 mg/kg, po measured upto 24 hrs by LC-MS/MS analysis; type: ADME, organism-based; conditions: in vivo, read-out: Vdss
[9] = Oral bioavailability in Sprague-Dawley rat at 1.04 mg/kg measured upto 24 hrs by LC-MS/MS analysis; type: ADME, organism-based; conditions: in vivo
[10] = AUC in Sprague-Dawley rat at 1.04 mg/kg, po measured upto 24 hrs by LC-MS/MS analysis; type: ADME, organism-based; design: time < 24 hr, dose 1.04 mg/kg, route oral; conditions: in vivo
[11] = Metabolic stability in rat liver microsomes assessed as half life; type: ADME, Microsome

Coagulation factor XI, sequence (P03951 19-387 limits assumed): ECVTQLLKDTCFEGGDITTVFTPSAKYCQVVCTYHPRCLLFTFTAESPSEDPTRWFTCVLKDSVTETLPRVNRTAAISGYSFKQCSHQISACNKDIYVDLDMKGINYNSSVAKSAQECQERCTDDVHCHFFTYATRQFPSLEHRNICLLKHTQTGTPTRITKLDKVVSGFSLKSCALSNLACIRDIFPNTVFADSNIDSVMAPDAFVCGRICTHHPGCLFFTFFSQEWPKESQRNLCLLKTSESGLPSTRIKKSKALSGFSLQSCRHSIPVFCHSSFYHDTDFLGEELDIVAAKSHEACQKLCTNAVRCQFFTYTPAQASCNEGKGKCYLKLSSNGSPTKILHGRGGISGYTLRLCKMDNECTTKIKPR
Coagulation factor XI, sequence (P03951 388-625 limits assumed): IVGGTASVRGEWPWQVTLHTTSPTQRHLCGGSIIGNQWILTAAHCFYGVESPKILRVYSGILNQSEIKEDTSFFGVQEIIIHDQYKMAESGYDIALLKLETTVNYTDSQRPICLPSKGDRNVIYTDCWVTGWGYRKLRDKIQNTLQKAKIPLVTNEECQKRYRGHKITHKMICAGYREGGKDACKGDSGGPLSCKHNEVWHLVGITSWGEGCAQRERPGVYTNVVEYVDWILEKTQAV

SMILES: COC(=O)Nc1ccc2c(c1)N[C@@H](C(=O)OC)CCCC[C@H](NC(=O)/C=C/c1cc(Cl)ccc1-n1cnnn1)c1cc-2ccn1
- Papp B→A [1]: 21.3 ×10⁻⁶ cm/s
- Papp A→B [2]: < 1.5 ×10⁻⁶ cm/s
- Ki [3]: 3.4 nM
- EC1.5 [4]: 3.4 µM
- half-life [5]: 1.85 h
- clearance [6]: 5.2 mL/min/kg
- half-life [7]: 1.2 h
- Vd [8]: 0.53 L/kg
- bioavailability [9]: 23%
- AUC at 24 h [10]: 0.889 µM·h
- half-life [11]: 1.45 h
